Measurements reported in PubChem BioAssay AID743179 (NMMLSC, 2013).
Activity calls are given as the source filed them.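 How the source made its calls: active means at least 15% of cells MAC1 differentiation marker positive at top dose, with half-maximal concentration under 10 µM; inactive means the rest.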

Test system: not listed separately
Assay: MAC1 induction in THP1 leukemia cells – cell-based, MAC1 flow cytometry, set 1, SAR follow-up (AID 743179)
Details: THP1 MAC1+ differentiation, flow cytometry, 4 days; at 10 µM (top of the series)

Row | SMILES | MAC1+ percent, differentiation
1 | Cc1ccc(C)c(OCCn2cc(C(=O)O)c3ccccc32)c1 | 2% (inactive)
2 | CC(NC(=O)CCNC(=O)c1ccc(Cl)cc1)c1ccc2c(c1)OCO2 (stereo not given) | 5% (inactive)
3 | CC(=O)NCCC(=O)N[C@@H]1CCCc2ccccc21 | 2% (inactive)
4 | NCCC(=O)N[C@@H]1CCCc2ccccc21 | 1% (inactive)
5 | COc1ccccc1C(C)NC(=O)CCNC(=O)c1ccc(Cl)cc1 (stereo not given) | -1% (inactive)
6 | Cc1ccc(C(=O)NCCC(=O)N[C@@H]2CCCc3ccccc32)cc1 | 97% (inactive)
7 | CC(NC(=O)C1CCCN(C(=O)c2ccc(Cl)cc2)C1)c1ccccc1 (stereo not given) | 6% (inactive)
8 | O=C(CCCNC(=O)c1ccc(Cl)cc1)N[C@@H]1CCCc2ccccc21 | 5% (inactive)
9 | O=C(CNC(=O)c1ccc(Cl)c(Cl)c1)N[C@@H]1CCCc2ccccc21 | 6% (inactive)
10 | O=C(Cc1ccc(Cl)cc1)NCCC(=O)N[C@@H]1CCCc2ccccc21 | 13% (inactive)
11 | Cc1cccc(C(=O)NCCC(=O)NC2CCCc3ccccc32)c1 (stereo not given) | 4% (inactive)
12 | O=C(CCNC(=O)c1ccc(Cl)cc1)N[C@H]1CCCc2ccccc21 | 7% (inactive)
13 | O=C(CCNC(=O)c1ccccc1)N[C@@H]1CCCc2ccccc21 | 2% (inactive)
14 | O=C(CCCNC(=O)c1ccc(Cl)c(Cl)c1)N[C@@H]1CCCc2ccccc21 | 3% (inactive)
15 | O=C(CNC(=O)c1ccc(OC(F)(F)F)cc1)N[C@@H]1CCCc2ccccc21 | 3% (inactive)
16 | O=C(NC1CCOc2ccccc21)C1CCCN(C(=O)c2ccc(Cl)cc2)C1 (stereo not given) | 5% (inactive)

Row | SMILES | MAC1+ percent, differentiation
17 | CC(C)(C)OC(=O)NCCC(=O)N[C@@H]1CCCc2ccccc21 | 2% (inactive)
18 | O=C(CNC(=O)c1ccc(C(F)(F)F)cc1)N[C@@H]1CCCc2ccccc21 | 3% (inactive)
19 | O=C(CCNC(=O)c1ccc(Cl)c(Cl)c1)N[C@@H]1CCCc2ccccc21 | 109% (inactive)
20 | O=C(NC1CCc2ccccc21)C1CCCN(C(=O)c2ccc(Cl)cc2)C1 (stereo not given) | 4% (inactive)
21 | O=C(CCCNC(=O)c1ccc(OC(F)(F)F)cc1)N[C@@H]1CCCc2ccccc21 | 3% (inactive)
22 | O=C(O)c1ccccc1OCc1ccccc1Br | 4% (inactive)
23 | CC(c1ccccc1)N(C)C(=O)CCNC(=O)c1ccc(Cl)cc1 (stereo not given) | 7% (inactive)
24 | CC(C)(C)OC(=O)NCCC(=O)N[C@H]1CCCc2ccccc21 | 2% (inactive)
25 | O=C(CCCNC(=O)c1ccc(C(F)(F)F)cc1)N[C@@H]1CCCc2ccccc21 | 2% (inactive)
26 | O=C(CCNC(=O)c1ccc(Cl)cc1)NC1CCCCC1 | 3% (inactive)
27 | O=C(CCNC(=O)c1ccc(Cl)cc1)N[C@@H]1CCc2ccccc21 | 21% (inactive)
28 | C[C@@H](NC(=O)CCNC(=O)c1ccc(Cl)cc1)c1ccccc1 | 5% (inactive)
29 | CC(NC(=O)CCNC(=O)c1ccc(Cl)cc1)c1ccc(F)cc1 (stereo not given) | 6% (inactive)
30 | N#Cc1ccc(C(=O)NCCC(=O)N[C@@H]2CCCc3ccccc32)cc1 | 17% (inactive)
31 | O=C(CCNC(=O)c1ccc(F)cc1)N[C@@H]1CCCc2ccccc21 | 46% (inactive)
32 | O=C(CNC(=O)c1ccc(Cl)cc1)N[C@@H]1CCCc2ccccc21 | 4% (inactive)

Test system: THP1 MAC1+ differentiation, flow cytometry, 4 days
Assay: as above
Details: not given

Row | SMILES | EC50 [µM]
33 | O=C(CCNC(=O)c1ccc(OC(F)(F)F)cc1)N[C@@H]1CCCc2ccccc21 | 2.07
34 | O=C(CCNC(=O)c1ccc2c(c1)OC(F)(F)O2)N[C@@H]1CCCc2ccccc21 | 4.28
35 | O=C(CCNC(=O)c1ccc(C(F)(F)F)cc1)N[C@@H]1CCCc2ccccc21 | 2.49
36 | COc1ccc(C(=O)NCCC(=O)N[C@@H]2CCCc3ccccc32)cc1 | 5.16
37 | O=C(CCNC(=O)c1cccc(Cl)c1)N[C@@H]1CCCc2ccccc21 | 9.14
38 | O=C(O)c1cccnc1Nc1ccc(Cl)cc1 | 5.49
39 | O=C(CCNC(=O)c1ccc(Cl)cc1)N[C@@H]1CCCc2ccccc21 | 3.09
40 | O=C(CCNC(=O)c1ccc(Cl)cc1)NC1CCCc2ccccc21 (stereo not given) | 3.79
